Source: PubChem BioAssay (NCI)
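Assay format: 96-well plates, 48-hour exposure. At the TGI there is no net growth.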

What was measured:
Assay in all cases: DTP human tumour cell line panel, 48 h
786-0 renal = test system: 786-0 renal
A498 renal = test system: A498 renal
A549 NSCLC = test system: A549 NSCLC
ACHN renal = test system: ACHN renal
BT-549 breast = test system: BT-549 breast
CAKI-1 renal = test system: CAKI-1 renal
CCRF-CEM leukemia = test system: CCRF-CEM leukemia
COLO 205 colon = test system: COLO 205 colon
DU-145 prostate = test system: DU-145 prostate
EKVX NSCLC = test system: EKVX NSCLC
HCC-2998 colon = test system: HCC-2998 colon
HCT-116 colon = test system: HCT-116 colon
HCT-15 colon = test system: HCT-15 colon
HL-60(TB) leukemia = test system: HL-60(TB) leukemia
HOP-62 NSCLC = test system: HOP-62 NSCLC
HOP-92 NSCLC = test system: HOP-92 NSCLC
HS 578T breast = test system: HS 578T breast
HT29 colon = test system: HT29 colon
IGROV1 ovarian = test system: IGROV1 ovarian
K-562 leukemia = test system: K-562 leukemia
KM12 colon = test system: KM12 colon
LOX IMVI melanoma = test system: LOX IMVI melanoma
M14 melanoma = test system: M14 melanoma
MCF7 breast = test system: MCF7 breast
MDA-MB-231 breast = test system: MDA-MB-231 breast
MDA-MB-435 = test system: MDA-MB-435
MDA-N = test system: MDA-N
MOLT-4 leukemia = test system: MOLT-4 leukemia
NCI-H226 lung = test system: NCI-H226 lung
NCI-H23 lung = test system: NCI-H23 lung
NCI-H460 lung = test system: NCI-H460 lung
NCI/ADR-RES ovarian = test system: NCI/ADR-RES ovarian
OVCAR-3 ovarian = test system: OVCAR-3 ovarian
OVCAR-4 ovarian = test system: OVCAR-4 ovarian
OVCAR-5 ovarian = test system: OVCAR-5 ovarian
OVCAR-8 ovarian = test system: OVCAR-8 ovarian
PC-3 prostate = test system: PC-3 prostate
RPMI-8226 leukemia = test system: RPMI-8226 leukemia
RXF 393 renal = test system: RXF 393 renal
SF-268 CNS = test system: SF-268 CNS
SF-295 CNS = test system: SF-295 CNS
SF-539 CNS = test system: SF-539 CNS
SK-MEL-2 melanoma = test system: SK-MEL-2 melanoma
SK-MEL-28 melanoma = test system: SK-MEL-28 melanoma
SK-MEL-5 melanoma = test system: SK-MEL-5 melanoma
SK-OV-3 ovarian = test system: SK-OV-3 ovarian
SN12C renal = test system: SN12C renal
SNB-19 CNS = test system: SNB-19 CNS
SNB-75 CNS = test system: SNB-75 CNS
SR leukemia = test system: SR leukemia
SW-620 colon = test system: SW-620 colon
T-47D breast = test system: T-47D breast
TK-10 renal = test system: TK-10 renal
U251 CNS = test system: U251 CNS
UACC-257 melanoma = test system: UACC-257 melanoma
UACC-62 melanoma = test system: UACC-62 melanoma
UO-31 renal = test system: UO-31 renal
MALME-3M melanoma = test system: MALME-3M melanoma
NCI-H522 lung = test system: NCI-H522 lung

## O=C1c2cc3ccccc3cc2C2(c3ccc(Cl)cc3)NCCN12 (stereo unspecified)
786-0 renal
  TGI: 99.2 µM
A498 renal
  TGI: > 100 µM
A549 NSCLC
  TGI: 87.4 µM
ACHN renal
  TGI: > 100 µM
BT-549 breast
  TGI: > 100 µM
CAKI-1 renal
  TGI: > 100 µM
CCRF-CEM leukemia
  TGI: > 100 µM
COLO 205 colon
  TGI: 36.3 µM
DU-145 prostate
  TGI: > 100 µM
EKVX NSCLC
  TGI: 95.9 µM
HCC-2998 colon
  TGI: 60.4 µM
HCT-116 colon
  TGI: 45 µM
HCT-15 colon
  TGI: > 100 µM
HL-60(TB) leukemia
  TGI: 80 µM
HOP-62 NSCLC
  TGI: 86.3 µM
HOP-92 NSCLC
  TGI: > 100 µM
HS 578T breast
  TGI: > 100 µM
HT29 colon
  TGI: > 100 µM
IGROV1 ovarian
  TGI: > 100 µM
K-562 leukemia
  TGI: > 100 µM
KM12 colon
  TGI: 49.3 µM
LOX IMVI melanoma
  TGI: 56.3 µM
M14 melanoma
  TGI: 92.7 µM
MCF7 breast
  TGI: 77.9 µM
MDA-MB-231 breast
  TGI: > 100 µM
MDA-MB-435
  TGI: > 100 µM
MDA-N
  TGI: > 100 µM
MOLT-4 leukemia
  TGI: > 100 µM
NCI-H226 lung
  TGI: > 100 µM
NCI-H23 lung
  TGI: 64.1 µM
NCI-H460 lung
  TGI: > 100 µM
NCI/ADR-RES ovarian
  TGI: > 100 µM
OVCAR-3 ovarian
  TGI: 53.8 µM
OVCAR-4 ovarian
  TGI: > 100 µM
OVCAR-5 ovarian
  TGI: 81 µM
OVCAR-8 ovarian
  TGI: > 100 µM
PC-3 prostate
  TGI: 94.9 µM
RPMI-8226 leukemia
  TGI: 98.2 µM
RXF 393 renal
  TGI: 42.3 µM
SF-268 CNS
  TGI: > 100 µM
SF-295 CNS
  TGI: 62 µM
SF-539 CNS
  TGI: 61.5 µM
SK-MEL-2 melanoma
  TGI: 45.5 µM
SK-MEL-28 melanoma
  TGI: > 100 µM
SK-MEL-5 melanoma
  TGI: 40.4 µM
SK-OV-3 ovarian
  TGI: 68.9 µM
SN12C renal
  TGI: > 100 µM
SNB-19 CNS
  TGI: 68.9 µM
SNB-75 CNS
  TGI: > 100 µM
SR leukemia
  TGI: > 100 µM
SW-620 colon
  TGI: > 100 µM
T-47D breast
  TGI: > 100 µM
TK-10 renal
  TGI: > 100 µM
U251 CNS
  TGI: > 100 µM
UACC-257 melanoma
  TGI: > 100 µM
UACC-62 melanoma
  TGI: 55.4 µM
UO-31 renal
  TGI: > 100 µM

## C/C(=N\NC(=O)c1ccncc1)c1ccccc1Cl
786-0 renal
  TGI: > 100 µM
A498 renal
  TGI: > 100 µM
A549 NSCLC
  TGI: > 100 µM
ACHN renal
  TGI: > 100 µM
BT-549 breast
  TGI: > 100 µM
CAKI-1 renal
  TGI: > 100 µM
CCRF-CEM leukemia
  TGI: > 100 µM
COLO 205 colon
  TGI: > 100 µM
DU-145 prostate
  TGI: > 100 µM
EKVX NSCLC
  TGI: > 100 µM
HCT-116 colon
  TGI: > 100 µM
HCT-15 colon
  TGI: > 100 µM
HL-60(TB) leukemia
  TGI: > 100 µM
HOP-62 NSCLC
  TGI: > 100 µM
HOP-92 NSCLC
  TGI: > 100 µM
HS 578T breast
  TGI: > 100 µM
HT29 colon
  TGI: > 100 µM
IGROV1 ovarian
  TGI: > 100 µM
K-562 leukemia
  TGI: > 100 µM
KM12 colon
  TGI: > 100 µM
LOX IMVI melanoma
  TGI: > 100 µM
M14 melanoma
  TGI: > 100 µM
MALME-3M melanoma
  TGI: > 100 µM
MCF7 breast
  TGI: > 100 µM
MDA-MB-231 breast
  TGI: > 100 µM
MDA-MB-435
  TGI: > 100 µM
MDA-N
  TGI: > 100 µM
MOLT-4 leukemia
  TGI: > 100 µM
NCI-H226 lung
  TGI: > 100 µM
NCI-H23 lung
  TGI: > 100 µM
NCI-H460 lung
  TGI: > 100 µM
NCI-H522 lung
  TGI: > 100 µM
NCI/ADR-RES ovarian
  TGI: > 100 µM
OVCAR-3 ovarian
  TGI: > 100 µM
OVCAR-4 ovarian
  TGI: > 100 µM
OVCAR-5 ovarian
  TGI: > 100 µM
OVCAR-8 ovarian
  TGI: > 100 µM
PC-3 prostate
  TGI: > 100 µM
RPMI-8226 leukemia
  TGI: > 100 µM
RXF 393 renal
  TGI: > 100 µM
SF-268 CNS
  TGI: > 100 µM
SF-295 CNS
  TGI: > 100 µM
SF-539 CNS
  TGI: > 100 µM
SK-MEL-2 melanoma
  TGI: > 100 µM
SK-MEL-28 melanoma
  TGI: > 100 µM
SK-MEL-5 melanoma
  TGI: > 100 µM
SK-OV-3 ovarian
  TGI: > 100 µM
SN12C renal
  TGI: > 100 µM
SNB-19 CNS
  TGI: > 100 µM
SNB-75 CNS
  TGI: > 100 µM
SR leukemia
  TGI: > 100 µM
SW-620 colon
  TGI: > 100 µM
T-47D breast
  TGI: > 100 µM
TK-10 renal
  TGI: > 100 µM
U251 CNS
  TGI: > 100 µM
UACC-257 melanoma
  TGI: > 100 µM
UACC-62 melanoma
  TGI: > 100 µM
UO-31 renal
  TGI: > 100 µM

## O=C(Nc1ccccc1)c1cc(S(=O)(=O)n2cc[nH]c2=O)c(S)cc1Cl
786-0 renal
  TGI: > 100 µM
A498 renal
  TGI: > 100 µM
A549 NSCLC
  TGI: > 100 µM
ACHN renal
  TGI: > 100 µM
BT-549 breast
  TGI: > 100 µM
CAKI-1 renal
  TGI: > 100 µM
CCRF-CEM leukemia
  TGI: > 100 µM
COLO 205 colon
  TGI: > 100 µM
DU-145 prostate
  TGI: > 100 µM
EKVX NSCLC
  TGI: > 100 µM
HCC-2998 colon
  TGI: > 100 µM
HCT-116 colon
  TGI: > 100 µM
HCT-15 colon
  TGI: > 100 µM
HL-60(TB) leukemia
  TGI: > 100 µM
HOP-62 NSCLC
  TGI: > 100 µM
HOP-92 NSCLC
  TGI: > 100 µM
HS 578T breast
  TGI: > 100 µM
HT29 colon
  TGI: > 100 µM
IGROV1 ovarian
  TGI: > 100 µM
K-562 leukemia
  TGI: > 100 µM
KM12 colon
  TGI: > 100 µM
LOX IMVI melanoma
  TGI: > 100 µM
M14 melanoma
  TGI: > 100 µM
MCF7 breast
  TGI: > 100 µM
MDA-MB-231 breast
  TGI: > 100 µM
MDA-MB-435
  TGI: > 100 µM
MDA-N
  TGI: > 100 µM
MOLT-4 leukemia
  TGI: > 100 µM
NCI-H226 lung
  TGI: > 100 µM
NCI-H23 lung
  TGI: > 100 µM
NCI-H460 lung
  TGI: > 100 µM
NCI-H522 lung
  TGI: > 100 µM
NCI/ADR-RES ovarian
  TGI: > 100 µM
OVCAR-3 ovarian
  TGI: > 100 µM
OVCAR-5 ovarian
  TGI: > 100 µM
OVCAR-8 ovarian
  TGI: > 100 µM
PC-3 prostate
  TGI: > 100 µM
RPMI-8226 leukemia
  TGI: > 100 µM
RXF 393 renal
  TGI: > 100 µM
SF-268 CNS
  TGI: > 100 µM
SF-295 CNS
  TGI: > 100 µM
SF-539 CNS
  TGI: > 100 µM
SK-MEL-2 melanoma
  TGI: > 100 µM
SK-MEL-28 melanoma
  TGI: > 100 µM
SK-MEL-5 melanoma
  TGI: > 100 µM
SN12C renal
  TGI: > 100 µM
SNB-19 CNS
  TGI: > 100 µM
SNB-75 CNS
  TGI: 97.5 µM
SR leukemia
  TGI: > 100 µM
SW-620 colon
  TGI: > 100 µM
T-47D breast
  TGI: > 100 µM
TK-10 renal
  TGI: > 100 µM
U251 CNS
  TGI: > 100 µM
UACC-257 melanoma
  TGI: > 100 µM
UACC-62 melanoma
  TGI: > 100 µM
UO-31 renal
  TGI: > 100 µM
